Test results as given in paper PMC8780768 (Life, 2022).
Where “and” joins values, the source holds several entries; their conditions need not be identical. Equal values may be shown once. Read-outs that look alike come from different tables or passages of the source.

Legend:
Assay type in all cases: cell-based
GABA-ρ1 receptors [1] = biological target: T1, GABA-ρ1 receptors (Homo sapiens, UniProt P24046); assay: Two-electrode voltage-clamp, co-application of ligand with GABA EC50 at GABA-ρ1 receptors (additive/inhibition); conditions: for GABA-ρ1 Additive/Inhibition Hill slope: co-application curve with GABA EC50
T1 construct: expressed in transfected cells; host or cells: Xenopus laevis oocytes injected with cRNA
T1 sequence (P24046 22-479): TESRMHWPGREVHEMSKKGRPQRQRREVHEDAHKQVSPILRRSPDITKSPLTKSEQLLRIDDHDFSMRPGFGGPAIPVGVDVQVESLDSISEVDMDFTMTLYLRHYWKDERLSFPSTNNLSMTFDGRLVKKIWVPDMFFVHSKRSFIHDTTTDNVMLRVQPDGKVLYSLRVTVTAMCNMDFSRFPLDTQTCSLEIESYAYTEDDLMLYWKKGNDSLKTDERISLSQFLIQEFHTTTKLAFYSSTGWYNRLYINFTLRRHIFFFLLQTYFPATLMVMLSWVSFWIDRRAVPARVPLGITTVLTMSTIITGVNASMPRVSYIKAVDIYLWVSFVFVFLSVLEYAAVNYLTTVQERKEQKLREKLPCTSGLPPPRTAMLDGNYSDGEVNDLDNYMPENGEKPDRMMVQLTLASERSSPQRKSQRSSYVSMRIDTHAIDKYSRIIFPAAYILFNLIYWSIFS
Experimental: (§1) The activity of receptors was tested by recording whole cell currents using the two-electrode voltage clamp technique as previously reported. In brief, fabricated microelectrodes prepared with a micropipette puller (Sutter instruments, Novato, CA, USA), were filled with 3 M KCl solution (0.3–2.3 MΩ). Oocytes were immersed with ND96 buffer in the cell chamber at approximately 5 mL/min rate. The microelectrode impaled cells were clamped at −60 mV (voltage), and the currents elicited in response to the application of ligand/s was recorded using a Power Lab 2/25 analogue–digital data acquisition system (AD Instruments, Sydney, NSW, Australia), a Geneclamp 500 B amplifier (Axon Instrument, Foster City, CA, USA), and Lab Chart version 5.0.2 program (ADInstruments, Sydney, Australia).
(§2) Ligands were applied into the perfusate until a peak response (maximal) was reached. All stock solutions of the ligands were freshly made on the day of experiments. Solutions of ligands dissolved in DMSO were standardized to contain less than 0.8% DMSO in the final perfusate solution to prevent any alteration in the recordings. Perfusates containing these ligands (chemicals) were freshly prepared before each application. The dose–response curves of ligands were obtained by increasing the concentrations of applied agonists on oocytes until the maximum current reached. […] All experiments were conducted using at least two batches of oocytes.
(§3) I = Imax [A]^nH / (EC50^nH + [A]^nH)(1) where I is the current response, referring to a known concentration of agonist; Imax is the maximum current obtained; [A] is the agonist concentration; EC50 is the concentration of agonist/partial agonist at which the current response is half maximal; and nH is the Hill coefficient.
(§4) The equations for bell-shaped and biphasic curves are embedded in GraphPad PRISM 8.02.
(§5) A p value < 0.05 was considered statistically significant. […] Significance assigned * if p < 0.05, ** if p < 0.01, *** if p < 0.001 and **** if p < 0.0001.

GABA-ρ2 receptors [2] = biological target: T2, GABA-ρ2 receptors (Homo sapiens, UniProt P28476); assay: Two-electrode voltage-clamp, co-application of ligand with GABA EC50 at GABA-ρ2 receptors (additive/inhibition)
T2 construct: expressed in transfected cells; host or cells: Xenopus laevis oocytes injected with cRNA
T2 sequence (P28476 21-465): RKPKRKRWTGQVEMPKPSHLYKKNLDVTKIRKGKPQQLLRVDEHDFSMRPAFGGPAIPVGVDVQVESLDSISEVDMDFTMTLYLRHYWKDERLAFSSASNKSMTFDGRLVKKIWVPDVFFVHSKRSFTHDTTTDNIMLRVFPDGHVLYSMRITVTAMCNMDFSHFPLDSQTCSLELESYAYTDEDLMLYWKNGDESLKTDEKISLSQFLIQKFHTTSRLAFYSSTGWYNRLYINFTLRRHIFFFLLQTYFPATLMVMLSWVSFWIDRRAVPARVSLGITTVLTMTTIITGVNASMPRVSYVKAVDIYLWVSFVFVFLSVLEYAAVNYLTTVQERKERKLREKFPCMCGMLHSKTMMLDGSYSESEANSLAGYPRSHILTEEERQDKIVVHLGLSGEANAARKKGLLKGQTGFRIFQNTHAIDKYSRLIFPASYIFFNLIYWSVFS
Experimental: as §1, §2, §3, §4, §5

GABA-ρ2 receptors [3] = biological target: T2, GABA-ρ2 receptors; assay: Two-electrode voltage-clamp, agonist dose–response at GABA-ρ2 receptors expressed in Xenopus oocytes; conditions: for GABA-ρ2 Efficacy: relative to GABA maximal response
Experimental: (§6) Ovary lobes were dissected from female Xenopus laevis (South Africa clawed frogs), which were removed as reported previously, in accordance with the National Health and Medical Research Council (NHMRC) of Australia’s ethical guidelines. This procedure is also approved by the University of Sydney’s animal ethics committee (2013/5915). In brief, the females of Xenopus laevis were anaesthetized using 0.17% 3-aminobenzoic acid ethyl ester with 0.02% NaCl for 10–15 min, and a lobe of the ovary was dissected. The lobes were washed with oocyte releasing buffer 2 (OR2: 82.5 mM NaCl, 5 mM HEPES, 2 mM KCl, 1 mM MgCl2.6H2O pH 7.5) and incubated with collagenase A (2 mg·mL^−1 in OR2, Boehringer Mannheim, Mannheim, Germany) for approximately 2 h to separate oocytes from follicular cells and connective tissue. The released oocytes were washed in ND96 solution (96 mM NaCl, 1 mM MgCl2.6H2O, 2 mM KCl, 5 mM HEPES, and 1.8 mM CaCl2 pH 7.5). Stage V–VI oocytes were collected and injected in the cytoplasm using a 15–20 μm diameter tip micropipette (micropipette puller, Sutter Instruments, Novato, CA, USA) and a Nanoject injector (Drummond Scientific Co., Broomall, PA, USA) set to deliver a total of ~15 ng of cRNA.
(§7) The injected oocytes were placed on an oscillator at 18 °C for 2–6 days in ND96 solution, which contained 0.5 mM theophylline, 2.5 mM pyruvate, 50 μg/mL tetracycline, and 50 μg/mL gentamycin.
as §1, §2, §3

GABA-ρ1 receptors [4] = biological target: T1, GABA-ρ1 receptors; assay: Two-electrode voltage-clamp, agonist dose–response at GABA-ρ1 receptors expressed in Xenopus oocytes
Experimental: as §6, §7, §1, §2, §3

[5] = co-applied with GABA EC50, % of GABA EC50 response
[6] = co-application curve with GABA EC50 (800 nM)
[7] = co-applied with GABA EC50 (800 nM), % of GABA EC50 response
[8] = TEVC, Xenopus oocytes, −60 mV, read-out: GABA-ρ2 EC50
[9] = TEVC, Xenopus oocytes, −60 mV, read-out: GABA-ρ1 EC50
[10] = relative to GABA maximal response
[11] = bell-shaped/biphasic co-application curve with GABA EC50

Row | SMILES | GABA-ρ1 Additive/Inhibition Hill slope (GABA-ρ1 receptors [1]) | GABA-ρ1 Additive (%) (GABA-ρ1 receptors [1]; [5]) | GABA-ρ2 Additive/Inhibition Hill slope (GABA-ρ2 receptors [2]; [6]) | GABA-ρ2 Additive (%) (GABA-ρ2 receptors [2]; [7]) | % of GABA EC50 response when co-applied with 1 µM ligand (GABA-ρ2 receptors [2]; oocytes) [%] | EC50 (GABA-ρ2 receptors [3]; [8]) [µM] | GABA-ρ2 Efficacy (GABA-ρ2 receptors [3]) [%] | EC50 (GABA-ρ1 receptors [4]; [9]) [µM] | GABA-ρ1 Efficacy (GABA-ρ1 receptors [4]; [10]) [%] | GABA-ρ2 Additive (%) (GABA-ρ2 receptors [2]) | % of GABA EC50 response when co-applied with 10 µM ligand (GABA-ρ2 receptors [2]; oocytes) [%] | EC50 (GABA-ρ2 receptors [3]) [µM] | EC50 (GABA-ρ1 receptors [4]) [µM] | other results
1 | NCCCCC(=O)O [5-Aminovaleric acid, 5-amino valeric acid] | 3 ± 0.75 | 125 | 0.6 ± 0.48 | 110 | 92 | 36 | 45 | 600 | 3 |  |  |  |  | IC50 (GABA-ρ1 receptors [1]): 35 µM; IC50 (GABA-ρ2 receptors [2]): 10 µM; % of GABA EC50 response when co-applied with 100 µM ligand (GABA-ρ2 receptors [2]; oocytes): 51.1%
2 | NC/C=C\C(=O)O [CACA] | 0.9 ± 0.44 |  |  |  |  | 37 ± 12 | 60 | 93 ± 5.2 |  |  |  |  |  | GABA-ρ1 Additive (%) (GABA-ρ1 receptors [1]): 160%; effect on GABA EC50 response when co-applied with 1 mM ligand (GABA-ρ2 receptors [2]; GABA-ρ2, GABA EC50, ligand 1 mM, data not shown): does not show any significant effect; GABA-ρ1 Efficacy (GABA-ρ1 receptors [4]): 60%
3 | NCCCC(=O)O [GABA] |  |  |  |  |  |  |  |  |  |  |  |  |  | EC50 (GABA-ρ2 receptors [3]; TEVC, Xenopus oocytes, read-out: GABA-ρ2 EC50): 0.8 µM
4 | NCC(=O)O [Glycine, glycine] |  | 170 |  |  |  | ~1000 | 70 | ~1000 | 25 | 115 |  |  |  | % of GABA EC50 response when co-applied with 1 µM ligand (GABA-ρ2 receptors [2]): does not show a significant effect; % of GABA EC50 response when co-applied with 100 µM ligand (GABA-ρ2 receptors [2]): 115.4% and 115%; GABA-ρ2 Additive/Inhibition nH1 (GABA-ρ2 receptors [2]; [11]): 1.8 ± 0.3; GABA-ρ2 Additive/Inhibition nH2 (GABA-ρ2 receptors [2]; [11]): 1.7 ± 0.5
5 | O=C(O)Cc1c[nH]cn1 [Imidazole-4-acetic acid, imidazole-4-acetic acid] | 1.3 ± 0.22 | 115 |  |  | 94.2 ± 1.4 |  | 40 |  | 10 | 110 | 86.25 ± 3.5 | 0.2 | 66 | IC50 (GABA-ρ1 receptors [1]): 0.8 µM; GABA-ρ2 Additive/Inhibition Hill slope (GABA-ρ2 receptors [2]): 0.87 ± 0.39; IC50 (GABA-ρ2 receptors [2]): 2.4 µM; efficacy at GABA-ρ2 receptors, fold higher than at GABA-ρ1 receptors (GABA-ρ2 receptors [3]; ρ2 versus ρ1): 100 fold; potency at GABA-ρ2 receptors, fold higher than at GABA-ρ1 receptors (GABA-ρ2 receptors [3]; ρ2 versus ρ1): 4 fold
6 | O=C(O)C1=CCNCC1 [Isoguvacine, isoguvacine] | 0.57 ± 0.25 | 135 | 0.37 ± 3.1 | 120 | 106.8 ± 2.5 | 35 | 25 | 205 | 40 |  | 110 ± 4.3 |  |  | potency at GABA-ρ2 receptors, fold higher than at GABA-ρ1 receptors (GABA-ρ2 receptors [3]; ρ2 versus ρ1): six-fold; efficacy at GABA-ρ1 receptors, fold higher than at GABA-ρ2 receptors (GABA-ρ1 receptors [4]; ρ1 versus ρ2): two-fold
7 | NCc1cc(=O)[nH]o1 [Muscimol, muscimol] |  | 125 |  |  | 106.9 ± 1.1 |  | 65 |  | 80 | 112 | 107.9 ± 3.1 | 0.65 | 1.25 | GABA-ρ2 Additive/Inhibition Hill slope (GABA-ρ2 receptors [2]): 0.14 ± 0.48
8 | NC/C=C/C(=O)O [TACA] | 0.9 ± 0.08 |  | 0.8 ± 0.46 | 140 | 118.4 | 0.45 ± 0.4 | 85 | 0.6 |  |  | 137.5 |  |  | GABA-ρ1 Additive (%) (GABA-ρ1 receptors [1]): 190%; GABA-ρ1 Efficacy (GABA-ρ1 receptors [4]): 95%
9 | NCCC(=O)O [β-Alanine, β-alanine] | 1.5 ± 0.8 | 120 |  | 120 | 108.9 |  | 85 |  | 30 |  |  | 560 | 400 | % of GABA EC50 response when co-applied with 100 µM ligand (GABA-ρ2 receptors [2]; GABA-ρ2, GABA EC50 800 nM, ligand 100 µM): no significant effect; GABA-ρ2 Additive/Inhibition nH2 (GABA-ρ2 receptors [2]; [11]): 1.6 ± 0.36
